Measured values: patent publication US7858624B2, “Piperidine and morpholine renin inhibitors” (Vitae Pharmaceuticals, Inc., priority 2006, dated 2010)

Target: T1, trypsin-activated recombinant human renin (Homo sapiens, UniProt P00797)
T1 sequence (P00797 67-406): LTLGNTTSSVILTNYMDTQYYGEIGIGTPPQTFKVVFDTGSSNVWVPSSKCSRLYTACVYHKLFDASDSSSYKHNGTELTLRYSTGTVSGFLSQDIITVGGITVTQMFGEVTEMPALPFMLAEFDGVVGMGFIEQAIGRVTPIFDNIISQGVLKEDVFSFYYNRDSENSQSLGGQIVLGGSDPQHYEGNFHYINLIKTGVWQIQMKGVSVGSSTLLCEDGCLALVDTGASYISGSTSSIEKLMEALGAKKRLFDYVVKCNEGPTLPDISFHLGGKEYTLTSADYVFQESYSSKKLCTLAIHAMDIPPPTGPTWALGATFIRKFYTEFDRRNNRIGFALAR
Assay: In vitro IC50 for renin, fluorescence increase of internally quenched peptide substrate (protocol of Example 2)
Assay type: biochemical
Settings: protocol described in Example 2; DABCYL/EDANS peptide substrate, pH 7.0, rt
Experimental: The sequence of this peptide corresponds to the sequence of human angiotensinogen. The following test protocol is used: All reactions are carried out in a flat bottom white opaque microtiter plate. A 4 μL aliquot of 400 μM renin substrate (DABCYL-γ-Abu-Ile-His-Pro-Phe-His-Leu-Val-Ile-His-Thr-EDANS) in 192 μL assay buffer (50 mM BES, 150 mM NaCl, 0.25 mg/mL bovine serum albumin, pH7.0) is added to 4 μL of test compound in DMSO at various concentrations ranging from 10 μM to 1 nM final concentrations. Next, 100 μL of trypsin-activated recombinant human renin (final enzyme concentration of 0.2-2 nM) in assay buffer is added, and the solution is mixed by pipetting. The increase in fluorescence at 495 nm (excitation at 340 nm) is measured for 60-360 min at rt using a Perkin-Elmer Fusion microplate reader. The slope of a linear portion of the plot of fluorescence increase as a function of time is then determined, and the rate is used for calculating percent inhibition in relation to uninhibited control. […] The IC50 is defined as the concentration of a particular inhibitor that reduces the formation of product by 50% relative to a control sample containing no inhibitor. (Wang G. T. et al. Anal. Biochem. 1993, 210, 351; Nakamura, N. et al. J. Biochem. (Toko) 1991, 109, 741; Murakaini, K. et al. Anal Biochem. 1981, 110, 232).

IC50: 113 nM
Compound: CCCCNC(=O)C[C@H](O)[C@H](CC1CCCCC1)NC(=O)N1CCC[C@@H]([C@@H](OCCNC(=O)OC)c2cccc(Cl)c2)C1 [Example 1, methyl 2-((R)-((R)-1-((2S,3S)-5-(butylamino)-1-cyclohexyl-3-hydroxy-5-oxopentan-2-ylcarbamoyl)piperidin-3-yl)(3-chlorophenyl)methoxy)ethylcarbamate]
